Measured values from ChEMBL document CHEMBL1201862, “PubChem BioAssay data set” (2004).
Active and inactive are the calls of the source.

Experiments:
[1] = target: Protein disulfide-isomerase (Homo sapiens, UniProt P07237); assay: inhibition of PDI-driven insulin aggregation – biochemical, turbidity, absorbance, cherry-picked samples, dose response (AID 602350); assay type: functional
[2] = target: Calcium/calmodulin-dependent protein kinase type II subunit beta (Homo sapiens, UniProt Q13554); assay type: functional
[3] = target: Serine/threonine-protein kinase TAO1 (Homo sapiens, UniProt Q7L7X3); assay type: functional
[4] = target: Protein kinase C delta type (Homo sapiens, UniProt Q05655); assay type: functional
[5] = target: Casein kinase I isoform delta (Homo sapiens, UniProt P48730); assay type: functional;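 further: measured as one member (CSNK1D) of a kinome panel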
[6] = target: Calcium/calmodulin-dependent protein kinase type II subunit gamma (Homo sapiens, UniProt Q13555); assay type: functional
[7] = target: Casein kinase I isoform alpha (Homo sapiens, UniProt P48729); assay type: functional
[8] = target: Calcium/calmodulin-dependent protein kinase type II subunit delta (Homo sapiens, UniProt Q13557); assay type: functional
[9] = target: Serine/threonine-protein kinase PAK 1 (Homo sapiens, UniProt Q13153); assay type: functional
INS1 [10] = assay: INS-1E mitochondrial potential loss inhibitors – cell-based, JC-1 fluorescence, dry powder, set 2, dose response (AID 488867); assay type: functional; details: Rattus norvegicus
INS1 [11] = assay: INS-1E mitochondrial potential rescue under cytokines – cell-based, JC-1 fluorescence ratio, dry powder, dose response (AID 488931); assay type: functional; details: Rattus norvegicus
[12] = suppression of NO production in INS-1E cells – cell-based, Griess absorbance, dry powder, set 3, dose response (AID 488870); assay type: functional; details: Rattus norvegicus
INS1 [13] = assay: beta-cell survival under cytokine stress – INS-1E, ATP luminescence, dry powder, dose response (AID 488844); assay type: functional, cell-based; details: Rattus norvegicus
[14] = THP-1 cell cytotoxicity, cytotoxicity control, set 6 (AID 602433); assay type: functional; details: Mycobacterium tuberculosis
[15] = THP-1 cell cytotoxicity, dose response, cytotoxicity control, set 3 (AID 504852); assay type: functional; details: Mycobacterium tuberculosis
[16] = THP-1 cell cytotoxicity, cytotoxicity control, set 4 (AID 504911); assay type: functional; details: Mycobacterium tuberculosis
Phospholipase D2 = Phospholipase D2 (Homo sapiens, UniProt O14939); assay: cellular phospholipase D2 inhibition IC50 – cell-based, dose response (AID 602147); assay type: functional;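 further: cellular assay in HEK293 cells overexpressing GFP-tagged PLD2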
Phospholipase D1 = Phospholipase D1 (Homo sapiens, UniProt Q13393); assay: cellular phospholipase D1 inhibition IC50 – cell-based, dose response (AID 602151); assay type: functional;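 further: cellular PLD1 assay in Calu-1 cells stimulated with PMA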
Cytochrome P450 2C9 = Cytochrome P450 2C9 (Homo sapiens, UniProt P11712)
Cytochrome P450 2D6 = Cytochrome P450 2D6 (Homo sapiens, UniProt P10635);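 further: CYP2D6 member of a cytochrome P450 panel assay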
DNA topoisomerase = DNA topoisomerase (Yersinia pestis, UniProt A0A2S9PM60); assay: Yersinia topoisomerase I cleavage product accumulation – biochemical, cherry-pick, dose response (AID 588525)
[17] = A cell-based HTS for delayed death inhibitors of the malarial parasite plastid Measured in Microorganism System Using Plate Reader - 2126-01_Inhibitor_Dose_DryPowder_Activity.; assay type: functional, organism-based
[18] = A cell-based HTS for delayed death inhibitors of the malarial parasite plastid Measured in Microorganism System Using Plate Reader - 2126-02_Inhibitor_Dose_DryPowder_Activity.; assay type: functional, organism-based
[19] = target: Latent membrane protein 1 (Human herpesvirus 4 (strain B95-8), UniProt P03230); assay: LMP1 TES1 pathway selectivity over dsRED control – imaging, HEK293T, dual-color eGFP/dsRED, cherry-picks, selectivity assay for LMP1 NF-kB inhibitor project, dose response (AID 588398); assay type: functional, cell-based
Sequence of Latent membrane protein 1 (P03230 whole entry): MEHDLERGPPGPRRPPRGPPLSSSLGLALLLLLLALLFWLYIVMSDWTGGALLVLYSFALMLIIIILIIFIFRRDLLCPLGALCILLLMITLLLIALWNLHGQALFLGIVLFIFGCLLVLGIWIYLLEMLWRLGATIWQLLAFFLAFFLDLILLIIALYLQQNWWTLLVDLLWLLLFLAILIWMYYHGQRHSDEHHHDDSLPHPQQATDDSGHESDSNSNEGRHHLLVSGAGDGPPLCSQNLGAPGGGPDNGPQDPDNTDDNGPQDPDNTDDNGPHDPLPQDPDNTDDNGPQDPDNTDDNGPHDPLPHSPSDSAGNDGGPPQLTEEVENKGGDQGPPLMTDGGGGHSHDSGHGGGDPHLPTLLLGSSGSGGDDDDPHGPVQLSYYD

Sequence of Casein kinase I isoform alpha (P48729 whole entry, canonical isoform): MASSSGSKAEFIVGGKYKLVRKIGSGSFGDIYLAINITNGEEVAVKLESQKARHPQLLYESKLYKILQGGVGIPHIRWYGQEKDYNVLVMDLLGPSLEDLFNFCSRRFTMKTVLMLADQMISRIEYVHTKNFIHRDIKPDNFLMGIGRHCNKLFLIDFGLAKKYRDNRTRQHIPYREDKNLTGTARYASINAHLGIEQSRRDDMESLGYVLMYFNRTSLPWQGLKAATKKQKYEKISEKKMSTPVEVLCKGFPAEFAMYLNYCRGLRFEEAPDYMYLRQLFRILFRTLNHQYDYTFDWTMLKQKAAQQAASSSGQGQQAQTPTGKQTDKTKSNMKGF
Sequence of Serine/threonine-protein kinase PAK 1 (Q13153 whole entry): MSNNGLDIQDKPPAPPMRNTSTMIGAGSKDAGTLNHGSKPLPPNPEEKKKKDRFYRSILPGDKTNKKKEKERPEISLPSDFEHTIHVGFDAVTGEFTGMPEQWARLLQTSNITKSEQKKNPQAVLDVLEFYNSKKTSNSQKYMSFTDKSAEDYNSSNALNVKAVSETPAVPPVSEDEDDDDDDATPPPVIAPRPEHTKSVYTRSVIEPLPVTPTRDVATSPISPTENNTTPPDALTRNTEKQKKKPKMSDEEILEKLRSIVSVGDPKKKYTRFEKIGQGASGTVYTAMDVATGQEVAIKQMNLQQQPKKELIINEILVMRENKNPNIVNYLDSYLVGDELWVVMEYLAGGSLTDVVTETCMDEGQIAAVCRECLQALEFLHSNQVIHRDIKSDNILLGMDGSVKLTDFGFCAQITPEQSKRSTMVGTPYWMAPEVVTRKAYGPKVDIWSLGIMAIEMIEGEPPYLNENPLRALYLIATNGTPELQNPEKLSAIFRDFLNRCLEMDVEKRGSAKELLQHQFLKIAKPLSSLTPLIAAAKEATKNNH
Sequence of Phospholipase D1 (Q13393 whole entry): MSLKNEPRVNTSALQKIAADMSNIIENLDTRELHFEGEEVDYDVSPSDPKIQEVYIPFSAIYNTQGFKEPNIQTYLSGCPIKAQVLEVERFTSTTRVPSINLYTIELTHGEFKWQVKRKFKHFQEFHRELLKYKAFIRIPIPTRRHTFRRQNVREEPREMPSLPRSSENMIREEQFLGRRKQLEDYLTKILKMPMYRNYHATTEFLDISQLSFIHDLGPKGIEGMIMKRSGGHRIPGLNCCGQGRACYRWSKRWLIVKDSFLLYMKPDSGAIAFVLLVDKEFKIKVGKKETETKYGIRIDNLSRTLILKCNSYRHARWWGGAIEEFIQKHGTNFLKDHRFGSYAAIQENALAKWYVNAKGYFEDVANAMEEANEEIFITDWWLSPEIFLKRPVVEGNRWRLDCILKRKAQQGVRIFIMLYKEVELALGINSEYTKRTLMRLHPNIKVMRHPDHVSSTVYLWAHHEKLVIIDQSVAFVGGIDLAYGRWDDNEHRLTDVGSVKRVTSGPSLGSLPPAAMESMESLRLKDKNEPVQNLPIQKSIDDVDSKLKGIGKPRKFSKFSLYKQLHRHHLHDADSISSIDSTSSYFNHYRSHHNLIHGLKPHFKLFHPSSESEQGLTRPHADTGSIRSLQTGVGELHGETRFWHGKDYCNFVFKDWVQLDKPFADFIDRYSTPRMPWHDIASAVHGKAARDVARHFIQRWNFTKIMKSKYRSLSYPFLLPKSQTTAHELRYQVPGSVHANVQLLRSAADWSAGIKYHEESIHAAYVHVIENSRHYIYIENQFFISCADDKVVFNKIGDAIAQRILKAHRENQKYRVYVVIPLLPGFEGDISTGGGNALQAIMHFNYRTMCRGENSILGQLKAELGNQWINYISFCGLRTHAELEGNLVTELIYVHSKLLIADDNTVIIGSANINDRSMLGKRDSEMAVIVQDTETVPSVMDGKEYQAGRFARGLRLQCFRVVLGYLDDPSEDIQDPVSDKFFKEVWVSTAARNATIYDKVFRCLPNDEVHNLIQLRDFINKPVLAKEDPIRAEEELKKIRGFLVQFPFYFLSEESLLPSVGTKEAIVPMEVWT
Sequence of Serine/threonine-protein kinase TAO1 (Q7L7X3 whole entry): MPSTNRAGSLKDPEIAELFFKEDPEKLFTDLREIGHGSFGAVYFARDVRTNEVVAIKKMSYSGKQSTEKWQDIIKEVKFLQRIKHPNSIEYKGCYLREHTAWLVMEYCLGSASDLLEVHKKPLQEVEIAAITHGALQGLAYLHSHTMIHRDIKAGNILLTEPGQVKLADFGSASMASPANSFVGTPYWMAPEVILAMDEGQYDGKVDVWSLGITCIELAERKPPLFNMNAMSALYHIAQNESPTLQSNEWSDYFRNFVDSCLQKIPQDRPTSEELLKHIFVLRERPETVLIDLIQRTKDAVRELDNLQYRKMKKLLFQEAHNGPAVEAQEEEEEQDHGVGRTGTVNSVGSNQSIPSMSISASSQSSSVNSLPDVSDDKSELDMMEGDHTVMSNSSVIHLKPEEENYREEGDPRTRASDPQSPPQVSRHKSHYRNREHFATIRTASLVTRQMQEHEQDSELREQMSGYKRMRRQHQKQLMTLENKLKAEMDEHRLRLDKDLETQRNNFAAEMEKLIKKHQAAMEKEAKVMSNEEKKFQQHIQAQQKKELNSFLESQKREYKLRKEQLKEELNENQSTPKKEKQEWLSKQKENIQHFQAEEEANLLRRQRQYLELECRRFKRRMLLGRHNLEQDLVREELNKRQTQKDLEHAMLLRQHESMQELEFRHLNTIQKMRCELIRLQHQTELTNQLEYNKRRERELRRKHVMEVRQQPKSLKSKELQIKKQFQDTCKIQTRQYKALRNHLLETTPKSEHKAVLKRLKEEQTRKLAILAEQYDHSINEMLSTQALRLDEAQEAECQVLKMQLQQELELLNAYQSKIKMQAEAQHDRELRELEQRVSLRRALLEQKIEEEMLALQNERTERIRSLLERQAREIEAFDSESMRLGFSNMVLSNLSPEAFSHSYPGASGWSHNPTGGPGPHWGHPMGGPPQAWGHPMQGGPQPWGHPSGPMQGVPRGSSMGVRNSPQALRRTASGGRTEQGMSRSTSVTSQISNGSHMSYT
Sequence of Calcium/calmodulin-dependent protein kinase type II subunit beta (Q13554 whole entry): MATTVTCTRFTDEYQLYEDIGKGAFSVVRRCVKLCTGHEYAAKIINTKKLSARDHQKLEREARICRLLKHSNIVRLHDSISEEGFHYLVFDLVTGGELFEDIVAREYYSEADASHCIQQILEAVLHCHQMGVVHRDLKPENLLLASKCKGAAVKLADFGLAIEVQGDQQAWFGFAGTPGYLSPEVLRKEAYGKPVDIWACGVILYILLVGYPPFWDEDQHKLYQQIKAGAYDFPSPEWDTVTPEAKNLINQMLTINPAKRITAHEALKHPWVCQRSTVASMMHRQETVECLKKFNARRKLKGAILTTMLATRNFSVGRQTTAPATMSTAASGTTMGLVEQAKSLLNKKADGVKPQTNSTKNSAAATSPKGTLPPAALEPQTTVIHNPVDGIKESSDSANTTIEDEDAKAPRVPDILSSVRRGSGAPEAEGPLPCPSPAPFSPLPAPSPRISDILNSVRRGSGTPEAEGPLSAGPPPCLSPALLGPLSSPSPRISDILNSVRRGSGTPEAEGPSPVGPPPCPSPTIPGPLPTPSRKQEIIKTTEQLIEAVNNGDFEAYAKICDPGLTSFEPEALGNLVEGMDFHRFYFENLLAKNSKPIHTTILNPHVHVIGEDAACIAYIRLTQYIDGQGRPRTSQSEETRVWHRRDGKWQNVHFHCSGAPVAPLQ
Sequence of Protein disulfide-isomerase (P07237 whole entry): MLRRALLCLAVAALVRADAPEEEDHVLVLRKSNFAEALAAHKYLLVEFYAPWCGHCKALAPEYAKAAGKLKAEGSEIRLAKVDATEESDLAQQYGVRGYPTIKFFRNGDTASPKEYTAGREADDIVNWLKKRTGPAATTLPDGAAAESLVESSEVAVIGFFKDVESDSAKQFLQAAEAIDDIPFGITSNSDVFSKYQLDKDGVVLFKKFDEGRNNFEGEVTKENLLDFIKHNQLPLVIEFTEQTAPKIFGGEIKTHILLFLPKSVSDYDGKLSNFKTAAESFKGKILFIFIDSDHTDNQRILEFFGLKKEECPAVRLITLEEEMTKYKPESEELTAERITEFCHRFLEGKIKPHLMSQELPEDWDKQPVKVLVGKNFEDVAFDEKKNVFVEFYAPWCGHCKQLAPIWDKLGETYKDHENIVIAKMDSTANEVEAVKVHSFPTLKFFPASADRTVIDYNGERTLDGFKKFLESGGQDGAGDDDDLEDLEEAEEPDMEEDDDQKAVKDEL
Sequence of Casein kinase I isoform delta (P48730 whole entry, canonical isoform): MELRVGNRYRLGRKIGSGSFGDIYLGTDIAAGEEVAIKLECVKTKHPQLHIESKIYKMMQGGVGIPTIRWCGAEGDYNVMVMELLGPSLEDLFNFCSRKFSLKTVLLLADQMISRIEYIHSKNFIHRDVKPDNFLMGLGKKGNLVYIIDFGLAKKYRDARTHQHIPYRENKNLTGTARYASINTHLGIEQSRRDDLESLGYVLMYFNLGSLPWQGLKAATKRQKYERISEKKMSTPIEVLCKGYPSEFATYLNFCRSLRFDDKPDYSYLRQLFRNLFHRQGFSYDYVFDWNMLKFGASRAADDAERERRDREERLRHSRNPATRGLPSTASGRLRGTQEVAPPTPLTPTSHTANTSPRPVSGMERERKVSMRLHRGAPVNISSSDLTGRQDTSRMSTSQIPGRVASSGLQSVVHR

In the case of `Cc1c(O)ccc2c(CC(=O)N[C@@H](Cc3c[nH]c4ccccc34)C(=O)O)cc(=O)oc12`, the AC50 [1] is reported as 6.76 µM (active).

In the case of `CCCCOc1ccccc1CCc1cccc2nc(N)nc(N)c12`, the Ki [2] is reported as 2.51 µM (active), the Ki [3] is reported as 10 µM (active) and the Ki [4] is reported as 5.01 µM (active). For the same compound, the Ki [5] was 3.98 µM (active), the Ki [6] was 3.16 µM (active) and the Ki [7] was 1.58 µM (active). The Ki [8] was 5.01 µM (active) and the Ki [9] was 3.16 µM (active).

In the case of `C[C@@H]1CN([C@@H](C)CO)C(=O)c2cccc(NC(=O)Nc3cccc4ccccc34)c2O[C@H]1CN(C)S(=O)(=O)c1ccc2c(c1)OCC2`, the AC50 (INS1 [10]) is reported as 29.8 µM (active), the AC50 (INS1 [11]) is reported as > 195 µM (inactive) and the AC50 [12] is reported as 25.2 µM (active). For the same compound, the AC50 (INS1 [13]) was 67.9 µM (active).

With `CC(C)CCNC(=O)CSc1nc(O)c2ccccc2n1` the CC50 [14] was > 100 µM (active), the CC50 [15] was > 100 µM (active) and the CC50 [16] was > 100 µM (active).

In the case of `C[C@@H](CN1CCC(n2c(=O)[nH]c3ccccc32)CC1)NC(=O)CCc1ccc(F)cc1`, the IC50 (Phospholipase D2) is reported as 9 µM (active) and the IC50 (Phospholipase D1) is reported as 0.26 µM (active).

With `Clc1cccc(CSc2nnc(-c3sccc3-n3cccc3)o2)c1` the AC50 (Cytochrome P450 2C9) was “inconclusive”, the AC50 (Cytochrome P450 2D6) was 0.398 µM (inconclusive) and the AC50 (DNA topoisomerase) was 5.15 µM (active).

In the case of `C[C@@H]1CN([C@@H](C)CO)C(=O)c2cc(NC(=O)Nc3ccccc3)ccc2O[C@@H](C)CCCCO[C@H]1CN(C)C(=O)OC(C)(C)C`, the AC50 [17] is reported as 2.41 µM (active) and the AC50 [18] is reported as 1.37 µM (active).

With `Cc1ccc(/C=N/NC(=O)c2cc(-c3ccccc3)nc3ccccc23)o1` the AC50 [19] was 27.2 µM (active).
